Biological target: T1, Alpha-mannosidase 2 (Drosophila melanogaster, UniProt Q24451)
T1 sequence (Q24451 whole entry): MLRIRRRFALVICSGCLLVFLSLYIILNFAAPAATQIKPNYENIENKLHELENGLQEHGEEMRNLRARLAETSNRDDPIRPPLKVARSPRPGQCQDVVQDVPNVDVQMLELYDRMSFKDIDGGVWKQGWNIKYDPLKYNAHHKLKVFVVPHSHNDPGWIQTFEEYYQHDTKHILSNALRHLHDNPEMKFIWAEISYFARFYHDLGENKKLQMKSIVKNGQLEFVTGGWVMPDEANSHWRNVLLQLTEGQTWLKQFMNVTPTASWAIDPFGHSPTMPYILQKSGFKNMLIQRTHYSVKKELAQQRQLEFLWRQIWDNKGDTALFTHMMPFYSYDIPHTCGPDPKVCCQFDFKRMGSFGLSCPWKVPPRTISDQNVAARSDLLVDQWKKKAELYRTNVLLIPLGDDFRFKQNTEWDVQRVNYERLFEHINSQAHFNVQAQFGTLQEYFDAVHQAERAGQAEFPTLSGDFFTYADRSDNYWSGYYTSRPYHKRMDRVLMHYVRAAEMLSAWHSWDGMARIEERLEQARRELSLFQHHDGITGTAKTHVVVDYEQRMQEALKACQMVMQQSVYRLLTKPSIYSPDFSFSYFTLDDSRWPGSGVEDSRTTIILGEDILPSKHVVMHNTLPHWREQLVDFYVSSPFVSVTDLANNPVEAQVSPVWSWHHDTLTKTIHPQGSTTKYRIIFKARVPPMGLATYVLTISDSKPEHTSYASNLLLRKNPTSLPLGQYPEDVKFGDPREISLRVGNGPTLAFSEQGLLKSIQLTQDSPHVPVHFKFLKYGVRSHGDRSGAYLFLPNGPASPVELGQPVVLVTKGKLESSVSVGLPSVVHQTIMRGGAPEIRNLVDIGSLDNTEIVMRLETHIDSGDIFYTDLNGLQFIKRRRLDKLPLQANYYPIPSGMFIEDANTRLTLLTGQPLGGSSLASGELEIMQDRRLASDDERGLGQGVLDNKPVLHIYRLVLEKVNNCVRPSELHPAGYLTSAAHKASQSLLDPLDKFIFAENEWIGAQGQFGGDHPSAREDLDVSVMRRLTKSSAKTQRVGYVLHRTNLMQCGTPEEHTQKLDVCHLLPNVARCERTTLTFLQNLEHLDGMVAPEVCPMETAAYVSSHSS
Assay: Inhibition Assay
Settings: pH 5.75; 25 °C

Row | SMILES | IC50 [nM] | Ki [nM]
1 | O[C@H]1[C@H]2[C@H](O)CCCN2C[C@H]1O [(-)-swainsonine] | 37 | 3
2 | O=C(C[C@H]1CC[C@@H](O)C2[C@H](O)[C@H](O)CN21)c1ccccc1 (stereo not given in full) [Swainsonine derivative, 2] | 30 | 
3 | Cc1ccc(C(=O)C[C@H]2CC[C@@H](O)C3[C@H](O)[C@H](O)CN32)cc1 (stereo not given in full) [Swainsonine derivative, 3] | 29 | 
4 | CC(C)(C)c1ccc(C(=O)C[C@H]2CC[C@@H](O)C3[C@H](O)[C@H](O)CN32)cc1 (stereo not given in full) [Swainsonine derivative, 4] | 29 | 

Reference: BindingDB's records for doi:10.1002/cbic.200900750 (University of Toronto, 2010)
